Experimental data: patent publication US20250304563A1, “ACTIVATORS OF EFFECTOR T CELLS” (Orum Therapeutics, Inc., priority 2022, published 2025)

What was measured:
[1] = target: Cbl-b (36-427 aa truncated form, N-terminus Avi-tag) (Homo sapiens (Human), UniProt Q13191); assay: Cbl-b binding: TR-FRET displacement of BODIPY-FL probe
Method in brief: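 IC50 from loss of terbium–BODIPY-FL TR-FRET signal as compounds compete off a fluorescent Cbl-b inhibitor probe (1 uM) for 1 h at RT. Protein: N-Avi-tagged human Cbl-b 36-427 on streptavidin-terbium, 20 mM HEPES pH 7.5 buffer.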

[2] = system: Human primary T cells; assay: T cell activation: CD69 surface expression by flow cytometry; type: cell-based; conditions: fold over anti-CD3 stimulated background normalized to Compound 141A; for CD69 1 nM: 1 nM compound; for CD69 10 nM: 10 nM compound; for CD69 100 nM: 100 nM compound
Method in brief: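 Read-out is flow-cytometric CD69 surface staining, expressed as fold increase over anti-CD3-stimulated background and normalized to Compound 141A. Human pan T cells from PBMC or LeukoPaks were plated on OKT3-coated wells in serum-free XVivo-15. Compound dilutions were added for 48 h at 37° C, 5% CO2.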

[3] = system: Human primary T cells; assay: T cell activation: secreted IFN-y; type: cell-based; conditions: 48 hours, fold over background normalized to Compound 141A; for IFN-y 1 nM: 1 nM compound; for IFN-y 10 nM: 10 nM compound; for IFN-y 100 nM: 100 nM compound
Method in brief: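 Values are binned ranges (A–D) of fold increase over anti-CD3/CD28 background, normalized to a reference compound, for IFN-γ in supernatants measured by bead array. Pan-T cells from donor PBMC or LeukoPaks were stimulated on anti-CD3-coated wells (10 μg/mL coating) in serum-free medium with compound for 48 h at 37 °C.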

[4] = system: Human primary T cells; assay: T cell activation: secreted IL-2; type: cell-based; conditions: 48 hours, fold over background normalized to Compound 141A; for IL-2 1 nM: 1 nM compound; for IL-2 10 nM: 10 nM compound; for IL-2 100 nM: 100 nM compound
Method in brief: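 IL-2 values are fold over anti-CD3/CD28 background, normalized to a reference compound and sorted into ranges. They come from supernatants of human pan-T cells captured on anti-CD3-coated plates and exposed 48 h, 37° C., to duplicate compound dilutions, measured with cytometric beads.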

Sequence of Cbl-b (36-427 aa truncated form, N-terminus Avi-tag) (Q13191 36-427): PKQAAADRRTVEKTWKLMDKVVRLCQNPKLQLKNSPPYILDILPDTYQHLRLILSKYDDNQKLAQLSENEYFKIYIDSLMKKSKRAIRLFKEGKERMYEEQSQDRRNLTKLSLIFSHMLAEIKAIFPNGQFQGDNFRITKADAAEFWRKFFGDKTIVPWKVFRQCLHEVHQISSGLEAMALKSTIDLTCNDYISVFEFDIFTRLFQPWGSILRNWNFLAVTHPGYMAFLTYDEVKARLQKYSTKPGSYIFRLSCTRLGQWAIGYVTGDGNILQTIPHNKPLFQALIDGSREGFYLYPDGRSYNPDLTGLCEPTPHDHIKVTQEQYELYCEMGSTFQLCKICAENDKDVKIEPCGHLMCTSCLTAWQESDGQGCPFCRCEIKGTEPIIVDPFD

Row | Compound | IC50 [1] [nM] | CD69 1 nM [2] | CD69 10 nM [2] | CD69 100 nM [2] | IFN-y 1 nM [3] | IFN-y 10 nM [3] | IFN-y 100 nM [3] | IL-2 1 nM [4] | IL-2 10 nM [4] | IL-2 100 nM [4]
1 | Cn1cnnc1CC1(c2cc(NCCC#N)nc(N3Cc4c(cc(CN5CC6(F)CC(CO)(C5)C6)cc4C(F)(F)F)C3=O)c2)COC1.O=C(O)C(F)(F)F [Compound 164, 3-{[6-(6-{[1-fluoro-5-(hydroxymethyl)-3-azabicyclo[3.1.1]heptan-3-yl]methyl}-1-oxo-4-(trifluoromethyl)-3H-isoindol-2-yl)-4-{3-[(4-methyl-1,2,4-triazol-3-yl)methyl]oxetan-3-yl}pyridin-2-yl]amino}propanenitrile; trifluoroacetic acid] | 5.01 to 20 | C (values between 0.30 and 0.60: range “C”) | C (values between 0.30 and 0.60: range “C”) | C (values between 0.30 and 0.60: range “C”) | C (values between 0.10 and 0.30: range “C”) | C (values between 0.10 and 0.30: range “C”) | B (values between 0.31 and 1.00: range “B;”) | C (values between 0.10 and 0.30: range “C”) | C (values between 0.10 and 0.30: range “C”) | C (values between 0.10 and 0.30: range “C”)
2 | CCSc1cc(C2(Cc3nncn3C)COC2)cc(N2Cc3c(C=O)cc(CN4CCC[C@H](C)C4)cc3C2=O)n1 [Compound 169, 2-[6-(ethylsulfanyl)-4-{3-[(4-methyl-1,2,4-triazol-3-yl)methyl]oxetan-3-yl}pyridin-2-yl]-6-{[(3S)-3-methylpiperidin-1-yl]methyl}-1-oxo-3H-isoindole-4-carbaldehyde] | 5.01 to 20 | C (values between 0.30 and 0.60: range “C”) | C (values between 0.30 and 0.60: range “C”) | C (values between 0.30 and 0.60: range “C”) | C (values between 0.10 and 0.30: range “C”) | B (values between 0.31 and 1.00: range “B;”) | B (values between 0.31 and 1.00: range “B;”) | C (values between 0.10 and 0.30: range “C”) | C (values between 0.10 and 0.30: range “C”) | C (values between 0.10 and 0.30: range “C”)
3 | CSc1cc(C(CO)N2CCC[C@H](C)C2)cc2c1CN(c1cccc([C@]3(c4nncn4C)C[C@H](C)C3)c1)C2=O (stereo partly drawn) [Compound 170, 6-{2-hydroxy-1-[(3S)-3-methylpiperidin-1-yl]ethyl}-4-(methylsulfanyl)-2-{3-[(1r,3s)-3-methyl-1-(4-methyl-1,2,4-triazol-3-yl)cyclobutyl]phenyl}-3H-isoindol-1-one] | 1 to 5 | C (values between 0.30 and 0.60: range “C”) | C (values between 0.30 and 0.60: range “C”) | A (values between 0.81 and 1.10: range “A”) | B (values between 0.31 and 1.00: range “B;”) | B (values between 0.31 and 1.00: range “B;”) | B (values between 0.31 and 1.00: range “B;”) | C (values between 0.10 and 0.30: range “C”) | C (values between 0.10 and 0.30: range “C”) | B (values between 0.31 and 0.79: range “B”)
4 | CCNc1cc(C2(c3nncn3C)CC(C)C2)cc(N2Cc3c(cc(CN4CCC[C@H](C)C4)cc3C(F)(F)F)C2=O)n1 (some centres unmarked) [Compound 171, 2-[6-(ethylamino)-4-[(1r,3s)-3-methyl-1-(4-methyl-1,2,4-triazol-3-yl)cyclobutyl]pyridin-2-yl]-6-{[(3 S)-3-methylpiperidin-1-yl]methyl}-4-(trifluoromethyl)-3H-isoindol-1-one] | 100 to 1000 | C (values between 0.30 and 0.60: range “C”) | C (values between 0.30 and 0.60: range “C”) | X (fold over background values between 1.11 and 1.6: range “X”) | B (values between 0.31 and 1.00: range “B;”) | B (values between 0.31 and 1.00: range “B;”) | A (fold over background between 1.10 and 2.00: range “A”) | C (values between 0.10 and 0.30: range “C”) | C (values between 0.10 and 0.30: range “C”) | B (values between 0.31 and 0.79: range “B”)
5 | CSc1cc(CN2CCC[C@H](C)C2)cc2c1CN(c1cc(C3(Cc4nncn4C)COC3)cc(N)n1)C2=O [Compound 173] | 1 to 5 | C (values between 0.30 and 0.60: range “C”) | C (values between 0.30 and 0.60: range “C”) | C (values between 0.30 and 0.60: range “C”) | C (values between 0.10 and 0.30: range “C”) | B (values between 0.31 and 1.00: range “B;”) | B (values between 0.31 and 1.00: range “B;”) | D (values between 0.01 and 0.09: range “D.”) | D (values between 0.01 and 0.09: range “D.”) | D (values between 0.01 and 0.09: range “D.”)
6 | CSc1cc(CN2CCC[C@H](C)C2)cc2c1CN(c1cc([C@]3(c4nncn4C)C[C@H](C)C3)cc(N)n1)C2=O [Compound 174, 2-{6-amino-4-[(1r,3s)-3-methyl-1-(4-methyl-1,2,4-triazol-3-yl)cyclobutyl]pyridin-2-yl}-6-{[(3S)-3-methylpiperidin-1-yl]methyl}-4-(methylsulfanyl)-3H-isoindol-1-one] | 5.01 to 20 | C (values between 0.30 and 0.60: range “C”) | C (values between 0.30 and 0.60: range “C”) | B (values between 0.61 and 0.80: range “B;”) | B (values between 0.31 and 1.00: range “B;”) | B (values between 0.31 and 1.00: range “B;”) | B (values between 0.31 and 1.00: range “B;”) | D (values between 0.01 and 0.09: range “D.”) | D (values between 0.01 and 0.09: range “D.”) | B (values between 0.31 and 0.79: range “B”)
7 | CCNc1cc(C2(Cc3nncn3C)COC2)cc(N2Cc3c(SC)cc(CN4CCCCC4)cc3C2=O)n1 [Compound 175, 2-[6-(ethylamino)-4-{3-[(4-methyl-1,2,4-triazol-3-yl)methyl]oxetan-3-yl}pyridin-2-yl]-4-(methylsulfanyl)-6-(piperidin-1-ylmethyl)-3H-isoindol-1-one] | 1 to 5 | C (values between 0.30 and 0.60: range “C”) | C (values between 0.30 and 0.60: range “C”) | B (values between 0.61 and 0.80: range “B;”) | C (values between 0.10 and 0.30: range “C”) | B (values between 0.31 and 1.00: range “B;”) | B (values between 0.31 and 1.00: range “B;”) | D (values between 0.01 and 0.09: range “D.”) | D (values between 0.01 and 0.09: range “D.”) | C (values between 0.10 and 0.30: range “C”)
8 | CCNc1cc([C@]2(c3nncn3C)C[C@H](C)C2)cc(N2Cc3ncc(CN4CCC[C@H](C)C4)cc3C2=O)n1 [Compound 176, 6-[6-(ethylamino)-4-[(1r,3s)-3-methyl-1-(4-methyl-1,2,4-triazol-3-yl)cyclobutyl]pyridin-2-yl]-3-{[(3S)-3-methylpiperidin-1-yl]methyl}-7H-pyrrolo[3,4-b]pyridin-5-one] | 5.01 to 20 | C (values between 0.30 and 0.60: range “C”) | C (values between 0.30 and 0.60: range “C”) | B (values between 0.61 and 0.80: range “B;”) | C (values between 0.10 and 0.30: range “C”) | B (values between 0.31 and 1.00: range “B;”) | B (values between 0.31 and 1.00: range “B;”) | D (values between 0.01 and 0.09: range “D.”) | C (values between 0.10 and 0.30: range “C”) | B (values between 0.31 and 0.79: range “B”)
